Measurements: article PMC3258498 (Journal of Medicinal Chemistry, 2011)
“And” between values parts separate entries of the source, which are not always exact repeats. Equal values may be shown once. Read-outs that look alike come from different tables or passages of the source.

Assays:
WT HIV-1 = conditions: cited from earlier work
[1] = tested on: IIIB strain of HIV-1 (WT); experiment: Anti-HIV-1 activity in infected MT-2 human T-cells, MTT colorimetric method; type: cell-based; conditions: for gain in potency: in going from 1
HIV-1 Y181C variant [2] = conditions: read-out: activity for the Y181C-containing variant; cited from earlier work
[3] = tested on: HIV-1 K103N/Y181C variant; conditions: read-out: EC50 K103N/Y181C; Literature data, MT4 cells; cited from earlier work
HIV-1 Y181C variant [4] = conditions: read-out: EC50 Y181C; Literature data, MT4 cells; cited from earlier work
[5] = read-out: activity for WT HIV-1

Question: For `Cc1cc(C)cc(Oc2c(CSCc3ccco3)c(C)[nH]c(=O)c2I)c1` [compound 3], which EC50 (WT HIV-1; read-out: activity towards WT HIV-1) is on record?
Answer: 1 to 10 nM and 2 nM

Question: Which gain in potency [1] does the source give for `O=c1ccn(CCOc2ccc(Cl)cc2Cc2cc(Cl)ccc2Cl)c(=O)[nH]1` [compound 10] here?
Answer: ca. 15 fold

Question: With `O=c1ccn(CCOc2ccc(Cl)cc2Cc2c(Cl)cccc2Cl)c(=O)[nH]1` [compound 11] as the molecule, how does the gain in potency [1] read?
Answer: ca. 15 fold

Question: For `N#Cc1ccc(Oc2cc(Cl)ccc2Cl)c(OCCc2ccncc2)c1` [compound 33], which “worsening of the EC50 value” ([1]; relative to 31) is on record?
Answer: 18 fold

Question: With `CCc1c(C)[nH]c(=O)c(I)c1Oc1cccc(/C=C/C#N)c1` [compound 38] as the molecule, how does the EC50 (WT HIV-1; [5]) read?
Answer: < 5 nM

Question: What about the EC50 (HIV-1 Y181C variant [2]) of the same molecule?
Answer: < 5 nM

Question: For `Cc1cc(/C=C/C#N)cc(C)c1Nc1ccnc(Nc2ccc(C#N)cc2)n1` [compound 39, 4-[[4-[[4-[(1E)-2-cyanoethenyl]-2,6-dimethylphenyl]amino]-2-pyrimidinyl]amino]benzonitrile], which EC50 (WT HIV-1; [5]) is on record?
Answer: < 5 nM

Question: And the EC50 (HIV-1 Y181C variant [2])?
Answer: < 5 nM

Question: For `Cc1ccnc2c1NC(=O)c1cccnc1N2C1CC1` [nevirapine], which EC50 [3] is on record?
Answer: > 10000 nM

Question: And the EC50 (HIV-1 Y181C variant [4])?
Answer: > 10000 nM
